Experimental data taken from patent US20240239818A1, “COMPOUNDS AND COMPOSITIONS COMPRISING FLUOROPHORES FOR USE IN VISUALIZATION AND PURIFICATION OR MANIPULATION” (priority 2022, published 2024).
“Also recorded” adds a separate entry of the source.

Key:
Assay type in all cases: cell-based
[1] = target: T1, BRD4 (Homo sapiens, UniProt O60885); assay: BRD4 recruitment to coilin-HaloTag® in live N2a cells (no wash lattice lightsheet microscopy); settings: 100 nM
T1 construct: expressed in transfected cells; host or cells: N2a cells, transient transfection
Method: (§1) Live cell protein imaging and manipulation using JQ1-rhodamine-HaloTag® ligand. The ability of JQ1 ligands to recruit BET family protein BRD4 to HaloTag® fusion proteins at distinct genomic regions in N2a cells was then tested (FIG. 13A). N2a cells are neural progenitor cells that are frequently utilized to study neuronal differentiation and axonal growth. […] N2a cells were transiently transfected with plasmids encoding the HaloTag® protein fused to the following nuclear proteins: (1) constitutive heterochromatin marker heterochromatin protein 1 (HP1); (2) Cajal body component coilin; and (3) centromere localized histone H3 variant centromere protein A (CENP-A). These three proteins have a very distinct distribution in the nucleus than BRD4 which generally has an euchromatic distribution. Localization of BRD4 to specific gene loci can induce gene expression. […]
(§2) Initially, a side-by-side comparison of JF646 based 17 and JF635 based 18 was performed for recruiting BRD4 to coilin-HaloTag® under a “no wash” lattice lightsheet fluorescence microscopy setup. […] Advantageously, 18 also has lower absorptivity and negligible fluorescence quantum yield before HaloTag® conjugation. “No wash” imaging was performed and the fluorescence from JF635 and sfGFP were monitored. […] The […] HP1-HaloTag® labeled with either JF635-HaloTag® ligand (5HTL) or the JQ1 analog 18 were quantified (FIG. 13J).

[2] = target: T1, BRD4; assay: BRD4 recruitment to HP1-HaloTag® in live N2a cells (no wash lattice lightsheet microscopy); settings: 100 nM
Method: as §1, §2

[3] = target: T2, msGFP-HaloTag® fusion protein (mitochondria) from HEK293T cells (Rhodococcus rhodochrous, UniProt P0A3G2, A155T/A167V/A172T/A224E/C128F/C176G/D78G/E160K/E257K/H272N/K175M/K195N/L47V/L88M/N227D/S58T/T264A/Y273L/Y87F); assay: Affinity capture (streptavidin microbeads) and in-gel fluorescence; settings: streptavidin beads
T2 construct: and (4) HaloTag®; expressed in transfected cells; host or cells: HEK293T, calcium phosphate transfection
T2 sequence (P0A3G2 other isoform, or with tags, fused parts or gaps with the stated changes): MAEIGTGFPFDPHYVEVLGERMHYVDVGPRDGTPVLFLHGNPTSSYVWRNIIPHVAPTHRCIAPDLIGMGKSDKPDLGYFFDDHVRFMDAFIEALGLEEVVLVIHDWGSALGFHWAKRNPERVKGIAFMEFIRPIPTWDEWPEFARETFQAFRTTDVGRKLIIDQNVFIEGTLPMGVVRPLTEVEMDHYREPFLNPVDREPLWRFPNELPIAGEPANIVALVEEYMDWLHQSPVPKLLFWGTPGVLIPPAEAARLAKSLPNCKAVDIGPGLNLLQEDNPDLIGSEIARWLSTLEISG
Method: Affinity capture and in-gel fluorescence experiments. Affinity capture pulldown isolation experiments of biotin-labeled HaloTag® fusion proteins were performed on ice-cold isolation buffer (IB) consisting of KCl (0.18 M), ethylene glycol-bis(β-aminoethyl ether)-N,N,N′,N′-tetraacetic acid (EGTA; 1 mM), 3-(N-morpholino)propanesulfonic acid (MOPS; 5 mM); the pH was adjusted to pH=7.35 using KOH(aq).^51 HEK293T cells were scraped with 500 μL IB and homogenized using 12 strokes with a 27G syringe. The resulting homogenate was spun at 4° C. at 1000 g for 3 min to pellet large cellular debris. 50 μL of streptavidin-coated microbeads (Miltenyi, 130-048-101) were added to the supernatant and incubated for 30 min at 4° C. with slow rotation. LS columns (Miltenyi, 130-042-401) were prepared by first washing with 3 mL IB consisting of 2.5% bovine serum albumin (BSA; Jackson ImmunoResearch, 001-000-162) and then with plain IB (3×). Prior to supernatant-microbead mixture being loaded onto LS columns, 5% volume was taken for downstream total fraction calculations (i.e., the “total/20” sample). Columns and samples were kept at 4° C. (cold room) while samples were loaded onto columns and washed with IB (3×); this fraction was collected as designated as “wash”. After the washing step, the column was removed from the QuadroMACs magnet holder (Miltenyi, 130-092-857) and eluted with gentle plunge action into an Eppendorf tube; this was labeled as “eluate”. From here, there were three fractions for each condition: total/20, wash (unbound), and eluate (bound). Since mitochondria were being isolated, these samples were spun at 4° C. and 20,000 g to pellet mitochondria. These samples were then solubilized using the lysis buffer containing 1×PBS, 2% SDS, 1% Triton x-100, 10 mM EDTA, and protease inhibitors (2 mM PMSF, aprotinin, leupeptin, and pepstatin A). Samples were then incubated at 72° C. for 3-4 min after the addition of sample buffer (SB) (DTT, glycerol, and bromophenol blue). For protein detection, 10-20 μL of the sample was subjected to sodium dodecyl sulfate-polyacrylamide gel electrophoresis (SDS-PAGE), using 13% gels. The affinity capture pulldown efficiency was monitored using in-gel fluorescence. The msGFP signal from HaloTag®-TEV-4×GS-msGFP-mito after cell lysis and SDS-PAGE was analyzed, in-gel, using a BioRad Chemidoc MP imager (BioRad) through GFP fluorescence excitation and emission filters. Data were quantified by densitometry using Fiji.^52 Capture efficiency was calculated using equation 3:
[formula] • where Ieluate is the in-gel fluorescence intensity of the bead-bound fraction and Itotal/20 is the in-gel fluorescence intensity of the 5% of crude sample reserved for concentration control (i.e., the “total/20” sample).
Evaluation of biotin-HaloTag® ligand. A live cell permeable biotin reagent was saught for affinity pulldown of HaloTag® fusion proteins, given the broad utility of biotin conjugates in biochemistry and cell biology. To evaluate the performance of biotin-containing HaloTag® ligand, an assay was developed (FIG. 3A) where the HaloTag® is expressed as a fusion with monomeric superfolder green fluorescent protein (msGFP); the construct also included an OMP25 sequence to localize the fusion protein to the outer mitochondrial membrane, allowing straightforward imaging and affinity capture experiments.^28-29 HEK293T cells expressing this fusion protein were incubated with biotin-containing HaloTag® ligands followed by washing and cell lysis. The crude supernatant was incubated with streptavidin-coated magnetic microbeads, applied to a magnetic column, and washed. The magnet was removed, and the bead-bound mitochondria were eluted, lysed, and the resulting solution was analyzed by sodium dodecyl sulfate-polyacrylamide gel electrophoresis (SDS-PAGE) and in-gel fluorescence. To minimize dilution of the sample only the initial bead-bound fraction was collected, leaving some material on the column. […]

[4] = target: T3, msGFP-HaloTag® fusion localized to the mitochondrial outer membrane (Rhodococcus rhodochrous, UniProt P0A3G2, A155T/A167V/A172T/A224E/C128F/C176G/D78G/E160K/E257K/H272N/K175M/K195N/L47V/L88M/N227D/S58T/T264A/Y273L/Y87F)
T3 construct: expressed in transfected cells; host or cells: HEK293T, calcium phosphate transfection
T3 sequence (P0A3G2 other isoform, or with tags, fused parts or gaps with the stated changes): as above
Method: HEK293T labeling and fluorescence microscopy. […] For pulse-chase experiments, HEK293T cells were incubated with biotin-HaloTag® ligand (6; #G8281, Promega) at either 100 nM or 10 μM for 1 hour at 37° C. and chased with 100 nM of JANELIA FLUOR® (JF)549-HaloTag® ligand (2HTL). […] For imaging, the coverslips containing HEK293T cells were fixed with 4% paraformaldehyde in PBS at 37° C. for 10 min, washed with PBS (3×), and mounted on glass slides with ProLong Glass Antifade Mountant with NucBlue™ Stain (ThermoFisher; P36981). These cells were imaged using a Zeiss LSM 880 with Airyscan and a plan-apochromatic 63×/1.40 oil objective in Fast Airyscan mode. The same image acquisition settings were used for each trial and condition. Images were then processed with automatic Airyscan deconvolution settings.

Structure (SMILES) | BRD4 recruitment to coilin-HaloTag® [1] | BRD4 localization to HP1-HaloTag® [2] | affinity capture (protein bound to streptavidin) [3] | labeling of HaloTag®-msGFP fusion by pulse-chase (JF549/msGFP ratio after 2HTL chase) ([4]; HEK293T, 10 μM (μM concentrations), 1 h pulse) | labeling of HaloTag®-msGFP fusion by pulse-chase ([4]; HEK293T, nanomolar concentration (100 nM)) | concentration required to achieve cellular labeling ([4]; live cells) [µM]
Cc1sc2c(c1C)C(c1ccc(Cl)cc1)=N[C@H](CC(=O)NCCCCOCCOCCNC(=O)C1(F)C[N+](=C3C=CC4=C(c5cc(C(=O)NCCOCCOCCCCCCCl)ccc5C(=O)[O-])c5ccc(N6CC(F)C6)cc5[Si](C)(C)C4=C3)C1)c1nnc(C)n1-2 (stereo partly drawn) [compound 19, (−)-JQ1-JF635-HaloTag® ligand] | did not result in BRD4 localization | did not result in BRD4 localization | – | – | – | –
O=C(CCCC[C@@H]1SC[C@@H]2NC(=O)N[C@@H]21)NCCOCCOCCCCCCCl [compound 6, biotin-HaloTag® ligand] | – | – | prevents purification of HaloTag®-expressing mitochondria; also recorded: no appreciable affinity capture | substantially reduced JF549/msGFP ratio; also recorded: labels the HaloTag®-msGFP fusion in living cells; also recorded: substantially labeled the HaloTag® protein fusion | poor labeling | 10
